Measured values reported in patent publication US20260035367A1 (Celgene Corporation, priority 2021, published 2026).
Like-named read-outs stand apart in the source and are kept apart here.

Tests used:
[1] = biological target: T1, Recombinant human PKC-theta (His-tagged 362-706) (Homo sapiens, UniProt Q04759); assay: PKC-theta inhibition assay (HTRF KinEASE kit); assay type: biochemical; conditions: ATP 6.5 μM, STK substrate 525 nM
T1 construct: Recombinant human PKC-theta (His-tagged 362-706); His
Method in brief: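 IC50 values were from 4-parameter logistic fits of percent inhibition, based on acceptor/donor HTRF ratios over 10 semi-log compound doses. Kinase reactions, started with substrate plus ATP, ran 30 min at 25 °C in buffer supplemented with 10 mM MgCl2, 1 mM DTT and 0.1% Tween 20; detection lasted 2 h.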

[2] = system: IL-2 secretion by human effector memory T cells (TEM); assay: Effector memory T cells IL-2 release assay (CD3/CD28 stimulation, HTRF IL-2 detection); assay type: cell-based; conditions: Homo sapiens, T-cell, 24 h
Method in brief: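 Human effector memory T cells from healthy-donor buffy coats were exposed in triplicate to ten semi-log doses of compound in 0.1% DMSO. The cells were stimulated and incubated 24 h at 37 °C. Secreted IL-2 in the supernatant was measured by HTRF.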

[3] = biological target: T2, Recombinant human PKC-delta (His-tagged 345-676) (Homo sapiens, UniProt Q05655); assay: PKC-delta inhibition assay (HTRF KinEASE kit); assay type: biochemical; conditions: ratio, PKC-theta vs PKC-delta HTRF; for PKC-theta/PKC-delta selectivity (binned): binned A to G
T2 construct: PKC-delta (His-tagged 345-676); His
Procedure: PKC-theta and PKC-delta biochemical activities were measured using the PKC-theta HTRF KinEASEkit kit, according to manufacturer's instructions (Cisbio, catalogue number 61ST1PEJ). Briefly, the kinase buffer component of the kit was supplemented with 10 mM MgCl2, 1 mM DTT and 0.1% Tween 20. […] The streptavidin_XL665 and STK antibody-cryptate detection reagents were mixed according to the manufacturer's instructions. Test compounds were diluted in DMSO in a series of 10 semi-log step doses; 10 nL of each compound dose were dispensed in 384 well plates. […] The reaction was started by addition of the substrate and ATP and incubated at 25° C. for 30 minutes or 20 minutes for the PKC-theta and PKC-delta assays, respectively. The detection reagents were added, and the plate was incubated in the dark for 2 hours. […] The ratio of acceptor and donor emission signals was calculated for each well.

[4] = binned A to H, read-out: PKC-theta HTRF pIC50 (binned) (converted)
[5] = read-out: PKC-theta HTRF pIC50 (converted)
[6] = binned A to G, read-out: PKC-theta IL2 pIC50 (binned) (converted)
[7] = read-out: PKC-theta IL2 pIC50 (converted)

T1 sequence (Q04759 362-706): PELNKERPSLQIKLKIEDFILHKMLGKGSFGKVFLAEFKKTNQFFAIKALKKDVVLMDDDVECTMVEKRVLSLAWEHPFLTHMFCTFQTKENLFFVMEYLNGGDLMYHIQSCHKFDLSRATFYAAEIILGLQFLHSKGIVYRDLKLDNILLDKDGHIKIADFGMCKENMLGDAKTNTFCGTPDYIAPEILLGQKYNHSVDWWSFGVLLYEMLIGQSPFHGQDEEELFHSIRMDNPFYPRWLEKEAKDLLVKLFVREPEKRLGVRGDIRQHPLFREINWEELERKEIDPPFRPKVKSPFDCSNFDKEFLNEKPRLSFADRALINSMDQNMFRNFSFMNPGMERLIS
T2 sequence (Q05655 345-676): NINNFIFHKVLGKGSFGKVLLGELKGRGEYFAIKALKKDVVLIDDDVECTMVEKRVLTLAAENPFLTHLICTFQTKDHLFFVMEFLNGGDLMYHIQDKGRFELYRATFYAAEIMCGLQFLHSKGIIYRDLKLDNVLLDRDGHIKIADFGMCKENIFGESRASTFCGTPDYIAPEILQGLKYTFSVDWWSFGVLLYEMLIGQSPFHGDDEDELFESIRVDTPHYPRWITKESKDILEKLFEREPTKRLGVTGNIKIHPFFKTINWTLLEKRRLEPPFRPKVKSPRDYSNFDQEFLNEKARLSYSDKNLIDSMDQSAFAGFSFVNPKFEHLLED

Row | SMILES | IC50 [1, 4] [nM] | IC50 [1, 5] [nM] | IC50 [2, 6] [nM] | IC50 [2, 7] [nM] | PKC-theta/PKC-delta selectivity [3] | PKC-theta/PKC-delta selectivity (binned) [3]
1 | CC[C@@H]1CN(c2cc(C(F)(F)F)cc(-c3ccnc4c3C(C)(O)C(=O)N4)n2)CCN1 (stereo partly drawn) [Example 72] | 10 to 31.6 | 25.1 | 100 to 316 | 316 | 12 | D (a ratio of between 10 and 20)
2 | CC1C(=O)Nc2nccc(-c3cccc(CN4CCNCC4)c3)c21 (stereo not drawn) [Example 19] | 100 to 316 | 200 | > 1000 | 2000 | 2 | F (a ratio of between 1 and 5)
3 | C[C@@H]1CNCCN1c1cc(Cl)cc(-c2ccnc3c2C(C)(C)C(=O)N3)n1 [Example 140] | 1 to 3.16 | 1.58 | 10 to 31.6 | 12.6 | 6 | E (a ratio of between 5 and 10)
4 | CC1C(=O)Nc2ncnc(-c3cccc(N4CCNCC4)c3)c21 (stereo not drawn) [Example 24] | 316 to 1000 | 1000 | > 1000 | 2000 | 1 | F (a ratio of between 1 and 5)
5 | C[C@H]1CNCCN1c1cc(C(F)(F)F)cc(-c2ccnc3c2[C@](C)(O)C(=O)N3)n1 (single isomer, unassigned) [Example 93] | 10 to 31.6 | 12.6 | 100 to 316 | 126 | 12 | D (a ratio of between 10 and 20)
6 | C[C@H]1CN(c2cc(Cl)cc(-c3ccnc4c3C(C)(O)C(=O)N4)c2)CCN1 (stereo partly drawn) [Example 75] | 3.16 to 10 | 7.94 | 100 to 316 | 158 | 11 | D (a ratio of between 10 and 20)
7 | CC1(C)C(=O)Nc2nccc(-c3cc(C(F)(F)F)cc(N4CC5CC4CN5)n3)c21 (stereo not drawn) [Example 85] | 10 to 31.6 | 20 | 316 to 1000 | 316 | 20 | D (a ratio of between 10 and 20)
8 | CC[C@@]1(C)C(=O)Nc2nccc(-c3cc(C(F)(F)F)cc(N4CCN[C@@H](C)C4)n3)c21 (single isomer, unassigned) [Example 154] | 3.16 to 10 | 7.94 | 100 to 316 | 126 | 19 | D (a ratio of between 10 and 20)
9 | C[C@@H]1CNCCN1c1cc(C(F)(F)F)cc(-c2ccnc3c2[C@](C)(O)C(=O)N3)n1 (single isomer, unassigned) [Example 94] | 1 to 3.16 | 2 | 10 to 31.6 | 20 | 9 | E (a ratio of between 5 and 10)
10 | CC1(C)C(=O)Nc2nccc(-c3cc(OC(F)F)cc(N4CCNCC4)n3)c21 [Example 86] | 31.6 to 100 | 31.6 | 316 to 1000 | 501 | 10 | E (a ratio of between 5 and 10)
11 | CC[C@@]1(C)C(=O)Nc2nccc(-c3cc(C(F)(F)F)cc(N4CCNC[C@H]4C)n3)c21 (single isomer, unassigned) [Example 198] | 3.16 to 10 | 3.98 | 31.6 to 100 | 63.1 | 30 | C (a ratio of between 20 and 30)
12 | C[C@@H]1CN(c2cc(Cl)cc(-c3ccnc4c3[C@](C)(O)C(=O)N4)n2)CCN1 (single isomer, unassigned) [Example 89] | 1 to 3.16 | 3.16 | 31.6 to 100 | 63.1 | 17 | D (a ratio of between 10 and 20)
